From ChEMBL document CHEMBL1201862, “PubChem BioAssay data set” (2004)
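Step 1: Grow cells in 96-well plates. Step 2: Expose to compound for 48 hours at 5 concentrations. Step 3: Interpolate endpoints linearly; if unreached, use highest concentration. GI50 is the concentration that inhibits growth by half.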 The source made the active and inactive calls. Rule as the data show it: active = GI50 up to about 1.1 µM and inactive = higher.

What was measured:
Experiment in all cases: DTP human tumour cell line panel, 48 h
[1] = tested on: OVCAR-8
[2] = tested on: SN12C
[3] = tested on: TK-10
[4] = tested on: NCI-H23
[5] = tested on: SNB-75
[6] = tested on: IGROV-1
[7] = tested on: SR
[8] = tested on: HCC 2998
[9] = tested on: M14
[10] = tested on: UO-31
[11] = tested on: LOX IMVI
[12] = tested on: Hs-578T
[13] = tested on: SNB-19
[14] = tested on: NCI/ADR-RES
[15] = tested on: SK-OV-3
[16] = tested on: RPMI-8226
[17] = tested on: ACHN
[18] = tested on: EKVX
[19] = tested on: SF-268
[20] = tested on: HCT-15
[21] = tested on: MOLT-4
[22] = tested on: OVCAR-5
[23] = tested on: HT-29
[24] = tested on: 786-0
[25] = tested on: HOP-92
[26] = tested on: RXF 393
[27] = tested on: SW-620
[28] = tested on: SK-MEL-28
[29] = tested on: UACC-62
[30] = tested on: CCRF-CEM
[31] = tested on: T47D
[32] = tested on: MCF7
[33] = tested on: K562
[34] = tested on: MDA-MB-231
[35] = tested on: CAKI-1
[36] = tested on: PC-3
[37] = tested on: OVCAR-4
[38] = tested on: BT-549
[39] = tested on: COLO 205
[40] = tested on: UACC-257
[41] = tested on: A498
[42] = tested on: HCT-116
[43] = tested on: OVCAR-3
[44] = tested on: MDA-MB-435
[45] = tested on: U-251
[46] = tested on: SK-MEL-2
[47] = tested on: NCI-H522
[48] = tested on: DU-145
[49] = tested on: SF-539
[50] = tested on: HOP-62
[51] = tested on: SK-MEL-5
[52] = tested on: NCI-H226
[53] = tested on: KM12
[54] = tested on: SF-295
[55] = tested on: A549
[56] = tested on: NCI-H460
[57] = tested on: HL-60
[58] = tested on: Malme-3M

COc1ccc2c(c1)C1c3ccccc3CCN1CCC2 (configuration not stated)
GI50 [1]: 54.5 µM (inactive)
GI50 [2]: 71.1 µM (inactive)
GI50 [3]: > 100 µM (inactive)
GI50 [4]: 47.9 µM (inactive)
GI50 [5]: 19.3 µM (inactive)
GI50 [6]: 56.6 µM (inactive)
GI50 [7]: 32.2 µM (inactive)
GI50 [8]: 23.4 µM (inactive)
GI50 [9]: 32.1 µM (inactive)
GI50 [10]: 26.9 µM (inactive)
GI50 [11]: 44.7 µM (inactive)
GI50 [12]: 42.9 µM (inactive)
GI50 [13]: 55.2 µM (inactive)
GI50 [14]: 31.2 µM (inactive)
GI50 [15]: 36.6 µM (inactive)
GI50 [16]: 28.8 µM (inactive)
GI50 [17]: 64.9 µM (inactive)
GI50 [18]: > 100 µM (inactive)
GI50 [19]: 56.6 µM (inactive)
GI50 [20]: 39.4 µM
GI50 [21]: 35.6 µM (inactive)
GI50 [22]: 93.1 µM (inactive)
GI50 [23]: 33.3 µM (inactive)
GI50 [24]: 42.1 µM (inactive)
GI50 [25]: 70.3 µM (inactive)
GI50 [26]: 47.6 µM (inactive)
GI50 [27]: 28.2 µM (inactive)
GI50 [28]: 74 µM (inactive)
GI50 [29]: 23.7 µM (inactive)
GI50 [30]: 38.5 µM (inactive)
GI50 [31]: > 100 µM (inactive)
GI50 [32]: 41.1 µM (inactive)
GI50 [33]: 33 µM (inactive)
GI50 [34]: 35.8 µM (inactive)
GI50 [35]: > 100 µM (inactive)
GI50 [36]: 29.2 µM (inactive)
GI50 [37]: > 100 µM (inactive)
GI50 [38]: 24.9 µM (inactive)
GI50 [39]: 44.7 µM (inactive)
GI50 [40]: 39.6 µM (inactive)
GI50 [41]: 69.3 µM (inactive)
GI50 [42]: 32.1 µM (inactive)
GI50 [43]: 73.8 µM (inactive)
GI50 [44]: 19.9 µM (inactive)
GI50 [45]: 32.6 µM (inactive)
GI50 [46]: 23.1 µM (inactive)
GI50 [47]: 28.4 µM (inactive)
GI50 [48]: > 100 µM (inactive)
GI50 [49]: 47.3 µM (inactive)
GI50 [50]: 58.6 µM (inactive)
GI50 [51]: 29.2 µM (inactive)
GI50 [52]: 45.3 µM (inactive)
GI50 [53]: 29.4 µM (inactive)
GI50 [54]: 23.8 µM (inactive)
GI50 [55]: 51.2 µM (inactive)

N=C(N)N1CCC(N2CCOCC2)CC1
GI50 [1]: > 100 µM (inactive)
GI50 [2]: > 100 µM (inactive)
GI50 [3]: > 100 µM (inactive)
GI50 [4]: > 100 µM (inactive)
GI50 [5]: > 100 µM (inactive)
GI50 [6]: > 100 µM (inactive)
GI50 [7]: > 100 µM (inactive)
GI50 [8]: > 100 µM (inactive)
GI50 [9]: > 100 µM (inactive)
GI50 [10]: > 100 µM (inactive)
GI50 [12]: > 100 µM (inactive)
GI50 [13]: > 100 µM (inactive)
GI50 [14]: > 100 µM (inactive)
GI50 [15]: > 100 µM (inactive)
GI50 [16]: > 100 µM (inactive)
GI50 [17]: > 100 µM (inactive)
GI50 [18]: > 100 µM (inactive)
GI50 [19]: > 100 µM (inactive)
GI50 [20]: > 100 µM
GI50 [21]: > 100 µM (inactive)
GI50 [22]: > 100 µM (inactive)
GI50 [23]: > 100 µM (inactive)
GI50 [24]: > 100 µM (inactive)
GI50 [25]: > 100 µM (inactive)
GI50 [26]: > 100 µM (inactive)
GI50 [27]: > 100 µM (inactive)
GI50 [28]: > 100 µM (inactive)
GI50 [29]: > 100 µM (inactive)
GI50 [56]: > 100 µM (inactive)
GI50 [30]: > 100 µM (inactive)
GI50 [31]: > 100 µM (inactive)
GI50 [32]: > 100 µM (inactive)
GI50 [33]: > 100 µM (inactive)
GI50 [34]: > 100 µM (inactive)
GI50 [37]: > 100 µM (inactive)
GI50 [39]: > 100 µM (inactive)
GI50 [40]: > 100 µM (inactive)
GI50 [41]: > 100 µM (inactive)
GI50 [57]: > 100 µM (inactive)
GI50 [42]: > 100 µM (inactive)
GI50 [58]: > 100 µM (inactive)
GI50 [44]: > 100 µM (inactive)
GI50 [45]: > 100 µM (inactive)
GI50 [48]: > 100 µM (inactive)
GI50 [49]: > 100 µM (inactive)
GI50 [50]: > 100 µM (inactive)
GI50 [51]: > 100 µM (inactive)
GI50 [52]: > 100 µM (inactive)
GI50 [53]: > 100 µM (inactive)
GI50 [54]: > 100 µM (inactive)
GI50 [55]: > 100 µM (inactive)

Oc1c(C(O)c2ccccn2)ccc2ccccc12 (configuration not stated)
GI50 [1]: 74.6 µM (inactive)
GI50 [2]: 48.1 µM (inactive)
GI50 [4]: 69.8 µM (inactive)
GI50 [5]: 24.4 µM (inactive)
GI50 [8]: 17.1 µM (inactive)
GI50 [9]: > 100 µM (inactive)
GI50 [10]: 29.6 µM (inactive)
GI50 [11]: > 100 µM (inactive)
GI50 [12]: 35.1 µM (inactive)
GI50 [13]: > 100 µM (inactive)
GI50 [14]: 42.1 µM (inactive)
GI50 [17]: 66.4 µM (inactive)
GI50 [18]: 53.1 µM (inactive)
GI50 [19]: 72.4 µM (inactive)
GI50 [20]: 22.1 µM
GI50 [21]: 19.6 µM (inactive)
GI50 [26]: 32.9 µM (inactive)
GI50 [29]: 14.4 µM (inactive)
GI50 [30]: 17.9 µM (inactive)
GI50 [31]: > 100 µM (inactive)
GI50 [33]: 26.4 µM (inactive)
GI50 [36]: 26.9 µM (inactive)
GI50 [40]: > 100 µM (inactive)
GI50 [57]: 15.1 µM (inactive)
GI50 [42]: 32.2 µM (inactive)
GI50 [43]: 56.8 µM (inactive)
GI50 [45]: 52 µM (inactive)
GI50 [47]: 17.4 µM (inactive)
GI50 [48]: > 100 µM (inactive)
GI50 [49]: 87.3 µM (inactive)
GI50 [50]: 81.3 µM (inactive)
GI50 [51]: 22.7 µM (inactive)
GI50 [52]: 85.3 µM (inactive)
GI50 [53]: 54.1 µM (inactive)
GI50 [54]: > 100 µM (inactive)
GI50 [55]: 61.7 µM (inactive)
